The source made the active and inactive calls. The calls are words filed in the database; no cut-off is given here.
Key:
KYSE-30 = test: Antiproliferative activity against human KYSE-30 cells assessed as inhibition of cell proliferation measured after 48 hrs by CCK8 assay; assay type: functional, cell-based; conditions: KYSE-30, 48 h
A549 = test: Antiproliferative activity against human A549 cells assessed as inhibition of cell proliferation measured after 48 hrs by CCK8 assay; assay type: functional, cell-based; conditions: A549, 48 h
MGC-803 = test: Antiproliferative activity against human MGC-803 cells assessed as inhibition of cell proliferation measured after 48 hrs by CCK8 assay; assay type: functional, cell-based; conditions: MGC-803, 48 h
KYSE-450 [1] = test: Induction of apoptosis in human KYSE-450 cells assessed by round cells at 0.313 to 2.5 uM measured after 48 hrs by DAPI staining based microscopic method; assay type: functional, cell-based; conditions: dose 0.313-2.5 µM
Tubulin = test: Inhibition of tubulin polymerization in human KYSE-450 cells measured by EBI competition assay relative to colchicine; assay type: cell-based
KYSE-450 [2] = test: Induction of apoptosis in human KYSE-450 cells assessed by concentrated nucleus at 0.313 to 2.5 uM measured after 48 hrs by DAPI staining based microscopic method; assay type: functional, cell-based; conditions: dose 0.313-2.5 µM
KYSE-450 [3] = test: Induction of apoptosis in human KYSE-450 cells assessed by smaller nucleus at 0.313 to 2.5 uM measured after 48 hrs by DAPI staining based microscopic method; assay type: functional, cell-based; conditions: dose 0.313-2.5 µM
ECa-109 cell line = test: Antiproliferative activity against human Eca-109 cells assessed as inhibition of cell proliferation measured after 48 hrs by CCK8 assay; assay type: functional, cell-based; conditions: ECa-109, 48 h
KYSE-450 [4] = test: Antiproliferative activity against human KYSE-450 cells assessed reduced cell viability at 1 to 80 uM measured after 48 hrs; assay type: functional, cell-based; conditions: dose 1-80 µM
Tubulin (Homo sapiens) = Tubulin (Homo sapiens) (UniProt P68371+Q9H4B7+P0DPH7+P68366+Q13509+Q71U36+P04350+Q3ZCM7+P07437+P68363+Q9BQE3+Q6PEY2+Q13885+Q9BVA1+Q9BUF5); test: Inhibition of tubulin polymerization in human KYSE-450 cells assessed by disorganised spindle at 1.25 to 2.5 uM measured after 48 hrs by immunoflourescence assay relative to colchicine; assay type: cell-based; conditions: dose 1.25-2.5 µM
KYSE-510 = test: Antiproliferative activity against human KYSE-510 cells assessed as inhibition of cell proliferation measured after 48 hrs by CCK8 assay; assay type: functional, cell-based; conditions: KYSE-510, 48 h
KYSE-450 [5] = test: Antiproliferative activity against human KYSE-450 cells assessed reduced cell viability at 0.313 to 2.5 uM; assay type: functional, cell-based; conditions: dose 0.313-2.5 µM, time 20-40 hrs, TDE = time-dependent effect
KYSE-450 [6] = test: Antiproliferative activity against human KYSE-450 cells assessed reduced cell viability measured after 20 to 60 hrs; assay type: functional, cell-based; conditions: dose 0.313-2.5 µM, time 20-60 hrs
KYSE-450 [7] = test: Antiproliferative activity against human KYSE-450 cells assessed as inhibition of colony formation at 0.188 uM measured after 7 days by colony formation assay; assay type: functional, cell-based; conditions: time 7.0 day
KYSE-450 [8] = test: Antiproliferative activity against human KYSE-450 cells assessed as inhibition of cell proliferation measured after 48 hrs by CCK8 assay; assay type: functional, cell-based; conditions: KYSE-450, 48 h

IC50 (A549) [µM] | IC50 (MGC-803) [µM] | SMILES | IC50 (KYSE-30) [µM] | further results
> 40 | 38.2 | Cc1ccc(CC(=O)N2CCc3cc(Br)ccc32)cc1 | 33.2 | 
17.7 | 8.32 | COc1cc(C(=O)N2CCc3cc([N+](=O)[O-])ccc32)cc(OC)c1OC | 6.55 | 
22 | 7.57 | COc1cc(C(=O)N2CCc3ccccc32)cc(OC)c1OC | 7.72 | 
> 40 | 35.8 | O=C(Cc1ccc(Br)cc1)N1CCc2cc(Br)ccc21 | 20.7 | 
18.9 | 24.1 | O=C(c1ccc(F)cc1)N1CCc2cc(Br)ccc21 | 22.1 | 
> 40 | 28.5 | O=C(c1ccccc1)N1CCc2cc(Br)ccc21 | 20.3 | 
> 40 | > 40 | O=C(Cc1ccc(F)cc1)N1CCc2cc(Br)ccc21 | > 40 | 
6.82 | 1.84 | COc1cc(C(=O)N2CCc3cc(Br)ccc32)cc(OC)c1OC | 1.61 | Activity (KYSE-450 [1]): Active; IC50 (Tubulin): 3.4 µM; Activity (KYSE-450 [2]): Active; Activity (KYSE-450 [3]): Active; IC50 (ECa-109 cell line): 2.24 µM; Activity (KYSE-450 [4]): Active; inhibition (Tubulin (Homo sapiens)): Active; IC50 (KYSE-510): 2.08 µM; Activity (KYSE-450 [5]): Tde; Activity (KYSE-450 [6]): Dose-Dependent Effect; Activity (KYSE-450 [7]): Active; IC50 (KYSE-450 [8]): 1.49 µM
28.5 | 82.8 | O=C(Cc1ccccc1)N1CCc2cc(Br)ccc21 | > 40 | 
38.9 | > 40 | Cc1ccc(C(=O)N2CCc3cc(Br)ccc32)cc1 | > 40 | 
23.7 | 4.41 | COc1cc(C(=O)N2CCCc3ccccc32)cc(OC)c1OC | 6.72 | 
21.1 | 18.8 | COc1ccc(C(=O)N2CCc3cc(Br)ccc32)cc1 | 18.9 | 
21.7 | 4.3 | COc1cc(C(=O)N2CCCCc3ccccc32)cc(OC)c1OC | 16.6 | 
24.8 | 28.7 | COc1ccc(CC(=O)N2CCc3cc(Br)ccc32)cc1 | > 40 | 
24.8 | 22.4 | COc1cc(CC(=O)N2CCc3cc(Br)ccc32)cc(OC)c1OC | 20.2 | 
> 40 | 33.6 | O=C(c1ccc(Br)cc1)N1CCc2cc(Br)ccc21 | 26.8 | 

SMILES | IC50 (A549) [µM] | IC50 (MGC-803) [µM] | IC50 (KYSE-30) [µM] | further results
COc1cc2c(c(OC)c1OC)-c1ccc(OC)c(=O)cc1[C@@H](NC(C)=O)CC2 [COLCHICINE] | 0.19 | 1.07 | 0.28 | 

— ChEMBL document CHEMBL4811276, “WITHDRAWN: Discovery of indoline derivatives as anticancer agents via inhibition of tubulin polymerization” (Bioorg Med Chem Lett, 2021)
